# Experimental data published in ChEMBL document CHEMBL4219062, “Design, synthesis and evaluation of γ-turn mimetics as LSD1-selective inhibitors” (Bioorg Med Chem, 2018).
# Active and inactive are the calls of the source. The calls are words filed in the database; no cut-off is given here.
# What was measured:
# [1] = test system: A549; experiment: cells; conditions: Homo sapiens, A549, 72 h, read-out: GI
# [2] = test system: A549; conditions: Homo sapiens, 10 uM
# [3] = test system: A549; experiment: Cell cycle arrest in human A549 cells assessed as increase in G1 population at 2 uM measured after 24 hrs by propidium iodide staining based flow cytometric analysis; format: functional
# [4] = test system: A549; experiment: Cell cycle arrest in human A549 cells assessed as decrease in S population at 2 uM measured after 24 hrs by propidium iodide staining based flow cytometric analysis; format: functional
# [5] = test system: A549; experiment: Cell cycle arrest in human A549 cells assessed as accumulation at sub-G1 population at 6 to 8 uM by propidium iodide staining based flow cytometric analysis; format: functional; conditions: TDE = time-dependent effect
# [6] = test system: A549; experiment: cells; conditions: Homo sapiens, A549, 72 h
# Description: Growth inhibition of human A549 cells after 72 hrs by Alamarblue assay
# [7] = biological target: T1, Amine oxidase [flavin-containing] A (Homo sapiens, UniProt P21397); experiment: biochemical
# T1 sequence (P21397 whole entry): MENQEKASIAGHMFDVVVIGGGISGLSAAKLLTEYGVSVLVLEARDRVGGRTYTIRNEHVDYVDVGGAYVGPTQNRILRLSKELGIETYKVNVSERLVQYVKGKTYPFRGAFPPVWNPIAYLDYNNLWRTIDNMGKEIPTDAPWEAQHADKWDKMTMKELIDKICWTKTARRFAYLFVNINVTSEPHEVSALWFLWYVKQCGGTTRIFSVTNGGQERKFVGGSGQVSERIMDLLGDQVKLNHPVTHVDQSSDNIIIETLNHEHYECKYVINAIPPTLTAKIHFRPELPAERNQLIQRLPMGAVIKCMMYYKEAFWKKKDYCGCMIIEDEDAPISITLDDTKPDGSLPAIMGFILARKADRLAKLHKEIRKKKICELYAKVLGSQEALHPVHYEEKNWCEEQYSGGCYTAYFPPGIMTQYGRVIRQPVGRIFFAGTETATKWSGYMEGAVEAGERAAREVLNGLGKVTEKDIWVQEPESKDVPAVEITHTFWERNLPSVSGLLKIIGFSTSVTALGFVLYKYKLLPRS
# Description: Inhibition of recombinant human MAO-A expressed in baculovirus infected BTI insect cells using (4S)-4,5-dihydro-2-(6-hydroxybenzothiazolyl)-4-thiazolecarboxylic acid as substrate measured after 60 mins by chemiluminescence assay
# [8] = biological target: T2, Amine oxidase [flavin-containing] B (Homo sapiens, UniProt P27338); experiment: biochemical
# T2 sequence (P27338 whole entry): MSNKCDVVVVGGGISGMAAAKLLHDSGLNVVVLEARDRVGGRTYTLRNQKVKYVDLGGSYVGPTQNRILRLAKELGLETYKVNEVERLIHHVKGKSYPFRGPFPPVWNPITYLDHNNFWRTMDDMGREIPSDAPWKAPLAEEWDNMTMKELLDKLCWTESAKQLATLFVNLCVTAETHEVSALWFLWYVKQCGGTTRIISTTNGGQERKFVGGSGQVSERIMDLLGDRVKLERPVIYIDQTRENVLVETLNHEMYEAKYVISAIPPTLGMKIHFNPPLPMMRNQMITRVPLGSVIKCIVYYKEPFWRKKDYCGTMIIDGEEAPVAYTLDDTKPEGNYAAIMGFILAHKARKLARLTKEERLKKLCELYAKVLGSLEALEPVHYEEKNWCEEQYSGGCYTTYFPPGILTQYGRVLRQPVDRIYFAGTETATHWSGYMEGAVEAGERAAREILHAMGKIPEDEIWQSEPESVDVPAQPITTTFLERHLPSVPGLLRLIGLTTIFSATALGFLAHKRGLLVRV
# Description: Inhibition of recombinant human MAO-B expressed in baculovirus infected BTI insect cells using (4S)-4,5-dihydro-2-(6-hydroxybenzothiazolyl)-4-thiazolecarboxylic acid as substrate measured after 60 mins by chemiluminescence assay
smiles,measurement,setting,value
CNS(=O)(=O)c1cccc(-c2ccc([C@@H]3C[C@H]3NCCCCC3C(=O)N(Cc4ccccc4)CCN(c4ccccc4)C3=O)cc2)c1 (relative stereo),inhibition of growth at 10 µM,[1],16%
O=C(N[C@@H](CCCCN[C@@H]1C[C@H]1c1ccccc1)C(=O)NCc1ccccc1)c1ccccc1,growth inhibition (GI),[2],inactive
CNC(=O)c1cccc(-c2ccc([C@@H]3C[C@H]3NCCCCC3C(=O)N(Cc4ccccc4)CCN(c4ccccc4)C3=O)cc2)c1 (relative stereo),inhibition of growth at 10 µM,[1],26%
COc1cccc(-c2ccc([C@@H]3C[C@H]3NCCCCC3C(=O)N(Cc4ccccc4)CCN(c4ccccc4)C3=O)cc2)c1 (relative stereo),inhibition of growth at 10 µM,[1],16%
O=C1C(CCCCN[C@@H]2C[C@H]2c2ccccc2)C(=O)N(c2ccc(-c3ccccc3)cc2)CCN1Cc1cccc(Cl)c1 (relative stereo),Activity,[3],Active
same,Activity,[4],Active
same,Activity,[5],Tde
same,inhibition of growth at 10 µM,[1],100%
same,GI50,[6],5.8 µM
same,IC50,[7],> 100 µM
same,IC50,[8],> 100 µM
O=C(N[C@@H](CCCCN[C@@H]1C[C@H]1c1ccccc1)C(=O)NCc1cccc(Cl)c1)c1ccc(-c2ccccc2)cc1,inhibition of growth at 10 µM,[1],100%
same,GI50,[6],8.6 µM
same,IC50,[7],> 100 µM
same,IC50,[8],> 100 µM
CNC(=O)c1cccc(-c2ccc([C@@H]3C[C@H]3NCCCCC3C(=O)N(Cc4cccc(Cl)c4)CCN(c4ccc(-c5ccccc5)cc4)C3=O)cc2)c1 (relative stereo),inhibition of growth at 10 µM,[1],26%
